According to patent EP0802184B1, “N-Benzyl-2-phenylindoles as estrogenic agents” (Wyeth, priority 1996, dated 1997):

What was measured:
Ishikawa cells = test: Ishikawa Cell Alkaline Phosphatase Assay; type: cell-based, human; details: for % Activation (Compound + 1 nM 17β-estradiol): 10^-6 M compound + 10^-9 M 17β-estradiol; for % Activation (Compound + 1 nM 17β-estradiol) / % Activation: 48 h; for % Activation: compound alone, percent of response related to 1 nM 17β-estradiol
Protocol: Cells were treated for 48 h prior to assay. […] Sample population for at each dose was n=8. […] Plates are placed at -80°C for a minimum of 15 minutes. Plates are thawed at 37°C followed by the addition of 150μL of 0.1 M Tris-HCl, pH 9.8, containing 4 mM para-nitrophenylphosphate (pNPP) to each well (final concentration, 3 mM pNPP). Absorbance and slope calculations were made using the […] Application program (Bio-Tek Instruments, Inc., Winooski, VT). […] Various compounds were assayed for estrogenic activity by the alkaline phosphatase method and corresponding ED50 values (95% C.I.) were calculated. The four listed in the following were used as reference standards: A description of such methods is provided by Holinka, […]., Kuramoto, H. and Gurpide, E. (1986) Effects of steroid hormones and antisteroids on alkaline phosphatase activity in human endometrial cancer cells (Ishikawa Line). Cancer Research, 46:2771-2774, and by […]. and by […] simple and sensitive microtiter plate estrogen bioassay based on stimulation alkaline phosphatase in Ishikawa cells; […] Endocrinology, 6:2757-2762.

estrogen receptor [1] = biological target: T1, estrogen receptor (Homo sapiens, UniProt P03372); test: 2X VIT ERE Transfection Assay (Infection Luciferase Assay); type: cell-based; details: 24 h; for % Activation with 1 nM 17β-estradiol: 1 uM compound + 1 nM 17β-estradiol (test for estrogen antagonism); for % Activation: compound alone (1 uM), compared to 17β-estradiol
T1 sequence (P03372 1-595): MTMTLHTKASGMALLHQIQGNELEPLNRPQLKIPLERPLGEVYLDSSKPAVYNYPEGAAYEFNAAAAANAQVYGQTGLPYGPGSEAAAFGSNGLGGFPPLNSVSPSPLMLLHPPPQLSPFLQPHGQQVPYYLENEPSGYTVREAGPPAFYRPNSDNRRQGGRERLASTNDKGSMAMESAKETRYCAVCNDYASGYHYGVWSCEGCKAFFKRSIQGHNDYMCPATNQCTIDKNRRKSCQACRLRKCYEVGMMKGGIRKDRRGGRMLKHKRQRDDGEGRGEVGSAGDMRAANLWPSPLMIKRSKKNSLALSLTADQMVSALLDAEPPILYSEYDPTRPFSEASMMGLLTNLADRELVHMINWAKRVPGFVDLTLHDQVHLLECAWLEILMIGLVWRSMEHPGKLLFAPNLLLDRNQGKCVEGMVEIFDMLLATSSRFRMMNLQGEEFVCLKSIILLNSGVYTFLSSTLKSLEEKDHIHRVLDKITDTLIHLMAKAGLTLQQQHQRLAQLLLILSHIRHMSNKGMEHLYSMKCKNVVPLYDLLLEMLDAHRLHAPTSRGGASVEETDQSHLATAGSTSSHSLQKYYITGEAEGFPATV
Protocol: Chinese Hamster Ovary cells (CHO) which had been stably transfected with the human estrogen receptor were maintained in DMEM + 10% fetal bovine serum (FBS). 48h prior to treatment the growth medium was replaced with DMEM lacking phenol red + 10% dextran coated charcoal stripped FBS (treatment medium). Cells were plated at a density of 5000 cells/well in 96-well plates containing 200 µL of medium/well.
Reporter DNA (Promega plasmid pGL2 containing two tandem copies of the vitellogenin ERE in front of the minimal thymidine kinase promoter driving the luciferase gene) was combined with the B-galactosidase expression plasmid pCH110 (Pharmacia) and carrier DNA (pTZ18U) in the following ratio: • 10uG of reporter DNA • 5uG of pCH110DNA • 5 uG of pTZ18U • 20 uG of DNA/1 mL of transfection solution
20 uL of this mixture was added to each well of cells and remained on the cells for 16 h. […] Each treatment condition was performed on 8 wells (n=8) which were incubated for 24 h prior to the luciferase assay.
After removing the PBS, 25 uL of Promega lysis buffer was added to each well and allowed to stand at room temperature for 15 min, followed by 15 min at -80°C and 15 min at 37°C. 20 uL of lysate was transferred to an opaque 96 well plate for luciferase activity evaluation and the remaining lysate (5 uL) was used for the B-galactosidase activity evaluation (normalize transfection). The luciferan substrate (Promega) was added in 100 uL aliquots to each well automatically by the luminometer and the light produced (relative light units) was read 10 seconds after addition.
To the remaining 5 uL of lysate 45 uL of PBS was added. Then 50 uL of Promega B-galactosidase 2X assay buffer was added, mixed well and incubated at 37°C for 1 hour. A plate containing a standard curve (0.1 to 1.5 milliunits in triplicate) was set up for each experimental run. The plates were analyzed on a Molecular Devices spectrophotometric plate reader at 410 nm. The optical densities for the unknown were converted to milliunits of activity by mathematical extrapolation from the standard curve.
The luciferase data was generated as relative light units (RLUs) accumulated during a 10 second measurement and automatically transferred to a JMP (SAS Inc) file where background RLUs were subtracted. The B-galactosidase values were automatically imported into the file and these values were divided into the RLUs to normalize the data. The mean and standard deviations were determined from a n=8 for each treatment. […] These techniques are described by Tzukerman, M.T., Esty, A., Santiso-Mere, D., Danielian, P., Parker, M.G., Stein, R.B., Pike, J.W. and McDonnel, D.P. (1994). Human estrogen receptor transactivational capacity was determined by both cellular and promoter context and mediated by two functionally distinct intramolecular regions (see Molecular Endocrinology, 8:21-30).

estrogen receptor [2] = biological target: T1, estrogen receptor; test: In vitro estrogen receptor binding assay (competition with [3H]-17β-estradiol); design: expressed in transfected cells; host or cells: CHO cells (ribosome-free cytosol); details: relative to 17β-estradiol=100; cytosol of CHO cells overexpressing the estrogen receptor
Protocol: CHO cells overexpressing the estrogen receptor were grown in 150 mm^2 dishes in DMEM + 10% dextran coated charcoal, stripped fetal bovine serum. The plates were washed twice with PBS and once with 10mM Tris-HCl, pH 7.4, 1mM EDTA. Cells were harvested by scraping the surface and then the cell suspension was placed on ice. Cells were disrupted with a hand-held motorized tissue grinder using two, 10-second bursts. The crude preparation was centrifuged at 12,000g for 20 minutes followed by a 60 minute spin at 100,000g to produce a ribosome free cytosol. The cytosol was then frozen and stored at -80°C. Protein concentration of the cytosol was estimated using the BCA assay with reference standard protein.
100uG/100uL of the receptor preparation was aliquoted per well. […] The plate was incubated at room temperature for 2.5 h. At the end of this incubation period 150 uL of ice-cold dextran coated charcoal (5% activated charcoal coated with 0.05% 69K dextran) was added to each well and the plate was immediately centrifuged at 99g for 5 minutes at 4°C. 200 uL of the supernatant solution was then removed for scintillation counting. Samples were counted to 2% or 10 minutes, whichever occurs first. […] Also, wells containing radioactivity but no cytosol were processed with charcoal to estimate unremovable DPM of [^3H]
Counts per minute (CPM) of radioactivity were automatically converted to disintegrated per minute (DPM) by the Beckman LS 7500 Scintillation Counter using a set of quenched standards to generate a H# for each sample.
For the generation of IC50 curves, % binding is plotted vs compound. […] For a description of these methods, see Hulme, E.C., ed. 1992. Receptor-Ligand Interactions: A Practical Approach. IRL Press, New York.(see especially chapter 8).

Row | SMILES | EC50 (Ishikawa cells; Ishikawa cells, reference standards, read-out: ED50 values (95% C.I.), estrogenic activity by the alkaline phosphatase method) [nM] | % Activation (Compound + 1 nM 17β-estradiol) (Ishikawa cells) [%] | % Activation (Ishikawa cells) [%] | % Activation with 1 nM 17β-estradiol (estrogen receptor [1]) [%] | % Activation (estrogen receptor [1]) [%] | Estrogen Receptor Affinity (reported as RBA: 17β-estradiol=100) (estrogen receptor [2])
1 | C[C@]12CC[C@@H]3c4ccc(O)cc4CC[C@H]3[C@@H]1CC[C@H]2O [17α-estradiol, reference compound] | 1.42 | – | – | – | – | –
2 | CCN(CC)C(=O)/C=C/c1ccc(Cn2c(-c3ccc(O)cc3)c(C)c3cc(O)ccc32)cc1 [Example 7, (E)-N, N-Diethyl-3-{4-[5-hydroxy-2-(4-hydroxy-phenyl)-3-methyl-indol-1-ylmethyl]-phenyl}-acrylamide] | – | 9 | 1 | 8 | 4 | 42
3 | Cc1c(-c2ccc(O)cc2)n(Cc2ccc(/C=C/C(=O)NC(C)(C)C)cc2)c2ccc(O)cc12 [Example 8, 1(E)-N-tert-butyl-3-{4-[5-hydroxy-2-(4-hydroxy-phenyl)-3-methyl-indol-1-ylmethyl]-phenyl}-acrylamide] | – | 22 | 10 | 78 | 6 | 40
4 | Cc1c(-c2ccc(O)cc2)n(Cc2ccc(/C=C/C(=O)N3CCCC3)cc2)c2ccc(O)cc12 [Example 9, (E)-Pyrrolidino-3-{4-[5-hydroxy-2-(4-hydroxy-phenyl)-3-methyl-indol-1-ylmethyl]-phenyl}-acrylamide] | – | 11 | 3 | 8 | 6 | –
5 | Cc1c(-c2ccc(O)cc2)n(Cc2ccc(/C=C/C(=O)N(C)C)cc2)c2ccc(O)cc12 [Example 10, (E)-N, N-Dimethyl-3-{4-[5-hydroxy-2-(4-hydroxy-phenyl)-3-methyl-indol-1-ylmethyl]-phenyl}-acrylamide] | – | 19 | 6 | 2 | 1 | 20
6 | CCCCN(CCCC)C(=O)/C=C/c1ccc(Cn2c(-c3ccc(O)cc3)c(C)c3cc(O)ccc32)cc1 [Example 11, (E)-N, N-Dibutyl-3-{4-[5-hydroxy-2-(4-hydroxy-phenyl)-3-methyl-indol-1-ylmethyl]-phenyl}-acrylamide] | – | 11 | 6 | 12 | 8 | 80
7 | CCCCN(C)C(=O)/C=C/c1ccc(Cn2c(-c3ccc(O)cc3)c(C)c3cc(O)ccc32)cc1 [Example 12, (E)-N-Butyl, N'-methyl-3-{4-[5-hydroxy-2-(4-hydroxy-phenyl)-3-methyl-indol-1-ylmethyl]-phenyl}-acrylamide] | – | 16 | 7 | 24 | 13 | 114
8 | Cc1c(-c2ccc(O)cc2)n(Cc2ccc(/C=C/C(=O)N3CCOCC3)cc2)c2ccc(O)cc12 [Example 13] | – | 9 | 7 | 17 | 8 | –
9 | Cc1c(-c2ccc(O)cc2)n(Cc2ccc(/C=C/C(N)=O)cc2)c2ccc(O)cc12 [Example 14, (E)-3-{4-[5-hydroxy-2-(4-hydroxy-phenyl)-3-methyl-indol-1-ylmethyl]-phenyl}-acrylamide] | – | 14 | 2 | 57 | 19 | 32
10 | CNC(=O)/C=C/c1ccc(Cn2c(-c3ccc(O)cc3)c(C)c3cc(O)ccc32)cc1 [Example 15, (E)-N, Methyl-3-{4-[5-hydroxy-2-(4-hydroxy-phenyl)-3-methyl-indol-1-ylmethyl]-phenyl}-acrylamide] | – | 5 | 0 | 31 | 15 | 53
11 | O=C(c1ccc(OCCN2CCCCC2)cc1)c1c(-c2ccc(O)cc2)sc2cc(O)ccc12 [raloxifene, reference compound] | – | 5 | – | – | – | –
12 | CC/C(=C(\c1ccccc1)c1ccc(OCCN(C)C)cc1)c1ccccc1 [tamoxifen, reference compound] | – | 45 | – | – | – | –
